Reference: paper PMC9487510, “A Novel Oral GyrB/ParE Dual Binding Inhibitor Effective against Multidrug-Resistant Neisseria gonorrhoeae and Other High-Threat Pathogens” (Antimicrobial Agents and Chemotherapy, 2022)
≈ marks a conversion by molar mass, not a printed value. Where two headings read alike, the source gives them in different places.

System: N. gonorrhoeae clinical isolates
Experiment: MIC, agar dilution (CLSI)
Type: cell-based, Neisseria gonorrhoeae
Conditions: Neisseria gonorrhoeae

Work on `CC[C@H]1OC(=O)[C@H](C)[C@@H](O[C@H]2C[C@@](C)(OC)[C@@H](O)[C@H](C)O2)[C@H](C)[C@@H](O[C@@H]2O[C@H](C)C[C@H](N(C)C)[C@H]2O)[C@](C)(O)C[C@@H](C)CN(C)[C@H](C)[C@@H](O)[C@]1(C)O` [Azi, azithromycin] yielded an MIC50 of 0.125 µg/mL (≈ 0.167 µM), an MIC (strain CDC1 (GCREF2012 016), read-out: MIC) of 0.25 µg/mL (≈ 0.334 µM) and an MIC (strain CDC2 (GCREF2012 045), read-out: MIC) of 0.5 µg/mL (≈ 0.668 µM). For the same compound, the MIC (strain CDC3 (GCREF2013 013)) was 0.125 µg/mL (≈ 0.167 µM), the MIC (strain CDC4 (GCREF2013 030)) was 0.125 µg/mL (≈ 0.167 µM) and the MIC (strain CDC5 (GCREF2012 001), read-out: MIC) was 0.5 µg/mL (≈ 0.668 µM). For the same compound, the MIC (strain CDC6 (GCREF2012 002), read-out: MIC) was 0.5 µg/mL (≈ 0.668 µM), the MIC (strain CDC8 (GCREF2012 004)) was 0.125 µg/mL (≈ 0.167 µM) and the MIC (strain CDC9 (GCREF2012 005)) was 0.125 µg/mL (≈ 0.167 µM). The MIC (strain CDC10 (GCREF2012 006), read-out: MIC) was 0.5 µg/mL (≈ 0.668 µM), the MIC (strain CDC11 (GCREF2012 007), read-out: MIC) was 0.25 µg/mL (≈ 0.334 µM) and the MIC (strain CDC12 (GCREF2012 008)) was 0.125 µg/mL (≈ 0.167 µM). For the same compound, the MIC (strain CDC13 (GCREF2012 009)) was 0.125 µg/mL (≈ 0.167 µM), the MIC (strain CDC14 (GCREF2012 010)) was 0.125 µg/mL (≈ 0.167 µM) and the MIC (strain CDC15 (GCREF2012 011), read-out: MIC) was 4 µg/mL (≈ 5.34 µM). For the same compound, the MIC (strain CDC16 (GCREF2012 012), read-out: MIC) was 0.25 µg/mL (≈ 0.334 µM), the MIC (strain CDC18 (GCREF2012 014), read-out: MIC) was 0.5 µg/mL (≈ 0.668 µM) and the MIC (strain CDC19 (GCREF2012 015), read-out: MIC) was 8 µg/mL (≈ 10.7 µM). It also gave an MIC (strain CDC20 (GCREF2012 017), read-out: MIC) of over 16 µg/mL, an MIC (strain CDC21 (GCREF2012 018)) of 0.125 µg/mL (≈ 0.167 µM) and an MIC (strain CDC22 (GCREF2012 019), read-out: MIC) of 0.5 µg/mL (≈ 0.668 µM). It also gave an MIC (strain CDC23 (GCREF2012 020)) of 0.125 µg/mL (≈ 0.167 µM), an MIC (strain CDC24 (GCREF2012 021), read-out: MIC) of 0.25 µg/mL (≈ 0.334 µM) and an MIC (strain CDC25 (GCREF2012 022)) of 0.125 µg/mL (≈ 0.167 µM). The MIC (strain CDC26 (GCREF2012 023), read-out: MIC) was 0.5 µg/mL (≈ 0.668 µM), the MIC (strain CDC27 (GCREF2012 024), read-out: MIC) was 0.25 µg/mL (≈ 0.334 µM) and the MIC (strain CDC28 (GCREF2012 025), read-out: MIC) was 0.25 µg/mL (≈ 0.334 µM). The MIC (strain CDC29 (GCREF2012 026), read-out: MIC) was 0.5 µg/mL (≈ 0.668 µM), the MIC (strain CDC30 (GCREF2012 027), read-out: MIC) was 0.25 µg/mL (≈ 0.334 µM) and the MIC (strain CDC31 (GCREF2012 028), read-out: MIC) was 0.5 µg/mL (≈ 0.668 µM). For the same compound, the MIC (strain CDC32 (GCREF2012 029)) was 0.125 µg/mL (≈ 0.167 µM), the MIC (strain CDC33 (GCREF2012 030)) was 0.125 µg/mL (≈ 0.167 µM) and the MIC (strain CDC34 (GCREF2012 031)) was 0.125 µg/mL (≈ 0.167 µM). For the same compound, the MIC (strain CDC35 (GCREF2012 032), read-out: MIC) was 0.25 µg/mL (≈ 0.334 µM), the MIC (strain CDC36 (GCREF2012 033), read-out: MIC) was 4 µg/mL (≈ 5.34 µM) and the MIC (strain CDC37 (GCREF2012 034), read-out: MIC) was 0.25 µg/mL (≈ 0.334 µM). For the same compound, the MIC (strain CDC38 (GCREF2012 035), read-out: MIC) was 0.25 µg/mL (≈ 0.334 µM), the MIC (strain CDC39 (GCREF2012 036), read-out: MIC) was 0.25 µg/mL (≈ 0.334 µM) and the MIC (strain CDC40 (GCREF2012 037), read-out: MIC) was 0.25 µg/mL (≈ 0.334 µM). The MIC (strain CDC41 (GCREF2012 038), read-out: MIC) was 0.25 µg/mL (≈ 0.334 µM), the MIC (strain CDC42 (GCREF2012 039), read-out: MIC) was 0.25 µg/mL (≈ 0.334 µM) and the MIC (strain CDC43 (GCREF2012 040), read-out: MIC) was 0.25 µg/mL (≈ 0.334 µM). The MIC (strain CDC45 (GCREF2012 042), read-out: MIC) was 0.5 µg/mL (≈ 0.668 µM), the MIC (strain CDC46 (GCREF2012 043)) was 0.125 µg/mL (≈ 0.167 µM) and the MIC (strain CDC47 (GCREF2012 044), read-out: MIC) was 0.5 µg/mL (≈ 0.668 µM). It also gave an MIC (strain CDC48 (GCREF2012 046), read-out: MIC) of 0.25 µg/mL (≈ 0.334 µM), an MIC (strain CDC49 (GCREF2012 047), read-out: MIC) of 0.5 µg/mL (≈ 0.668 µM) and an MIC (strain CDC50 (GCREF2012 048), read-out: MIC) of 0.25 µg/mL (≈ 0.334 µM). For the same compound, the MIC (strain CDC51 (GCREF2012 049)) was 0.125 µg/mL (≈ 0.167 µM), the MIC (strain CDC52 (GCREF2012 050)) was 0.125 µg/mL (≈ 0.167 µM) and the MIC (strain CDC53 (GCREF2012 051)) was 0.125 µg/mL (≈ 0.167 µM). For the same compound, the MIC (strain CDC54 (GCREF2012 052), read-out: MIC) was 0.016 µg/mL (≈ 0.0214 µM), the MIC (strain CDC55 (GCREF2013 001)) was 0.125 µg/mL (≈ 0.167 µM) and the MIC (strain CDC56 (GCREF2013 002)) was 0.125 µg/mL (≈ 0.167 µM). The MIC (strain CDC57 (GCREF2013 003)) was 0.125 µg/mL (≈ 0.167 µM), the MIC (strain CDC58 (GCREF2013 004)) was 0.125 µg/mL (≈ 0.167 µM) and the MIC (strain CDC59 (GCREF2013 044)) was 0.125 µg/mL (≈ 0.167 µM). For the same compound, the MIC (strain CDC60 (GCREF2013 005)) was 0.125 µg/mL (≈ 0.167 µM), the MIC (strain CDC61 (GCREF2013 006), read-out: MIC) was 0.25 µg/mL (≈ 0.334 µM) and the MIC (strain CDC62 (GCREF2013 007)) was 0.125 µg/mL (≈ 0.167 µM). The MIC (strain CDC63 (GCREF2013 008), read-out: MIC) was 0.016 µg/mL (≈ 0.0214 µM), the MIC (strain CDC64 (GCREF2013 009)) was 0.125 µg/mL (≈ 0.167 µM) and the MIC (strain CDC65 (GCREF2013 010)) was 0.125 µg/mL (≈ 0.167 µM). The MIC (strain CDC66 (GCREF2013 011), read-out: MIC) was 4 µg/mL (≈ 5.34 µM), the MIC (strain CDC67 (GCREF2013 014)) was 0.125 µg/mL (≈ 0.167 µM) and the MIC (strain CDC68 (GCREF2013 016)) was 0.125 µg/mL (≈ 0.167 µM). The MIC (strain CDC69 (GCREF2013 017)) was 0.125 µg/mL (≈ 0.167 µM), the MIC (strain CDC70 (GCREF2013 018), read-out: MIC) was 4 µg/mL (≈ 5.34 µM) and the MIC (strain CDC71 (GCREF2013 019)) was 0.125 µg/mL (≈ 0.167 µM). It also gave an MIC (strain CDC72 (GCREF2013 020)) of 0.125 µg/mL (≈ 0.167 µM), an MIC (strain CDC73 (GCREF2013 021)) of 0.125 µg/mL (≈ 0.167 µM) and an MIC (strain CDC74 (GCREF2013 022)) of 0.125 µg/mL (≈ 0.167 µM). The MIC (strain CDC75 (GCREF2013 023), read-out: MIC) was 0.5 µg/mL (≈ 0.668 µM), the MIC (strain CDC76 (GCREF2013 024)) was 0.125 µg/mL (≈ 0.167 µM) and the MIC (strain CDC77 (GCREF2013 025), read-out: MIC) was 4 µg/mL (≈ 5.34 µM). The MIC (strain CDC78 (GCREF2013 026), read-out: MIC) was 0.031 µg/mL (≈ 0.0414 µM), the MIC (strain CDC79 (GCREF2013 027)) was 0.125 µg/mL (≈ 0.167 µM) and the MIC (strain CDC80 (GCREF2013 028), read-out: MIC) was 8 µg/mL (≈ 10.7 µM). The MIC (strain CDC81 (GCREF2013 029)) was 0.125 µg/mL (≈ 0.167 µM), the MIC (strain CDC82 (GCREF2013 031), read-out: MIC) was 2 µg/mL (≈ 2.67 µM) and the MIC (strain CDC83 (GCREF2013 032)) was 0.125 µg/mL (≈ 0.167 µM). For the same compound, the MIC (strain CDC84 (GCREF2013 033)) was 0.125 µg/mL (≈ 0.167 µM), the MIC (strain CDC86 (GCREF2013 035)) was 0.125 µg/mL (≈ 0.167 µM) and the MIC (strain CDC87 (GCREF2013 036)) was 0.125 µg/mL (≈ 0.167 µM). It also gave an MIC (strain CDC88 (GCREF2013 037), read-out: MIC) of 2 µg/mL (≈ 2.67 µM), an MIC (strain CDC89 (GCREF2013 038), read-out: MIC) of 2 µg/mL (≈ 2.67 µM) and an MIC (strain CDC90 (GCREF2013 039)) of 0.125 µg/mL (≈ 0.167 µM). For the same compound, the MIC (strain CDC91 (GCREF2013 040)) was 0.125 µg/mL (≈ 0.167 µM), the MIC (strain CDC92 (GCREF2013 041)) was 0.125 µg/mL (≈ 0.167 µM) and the MIC (strain CDC93 (GCREF2013 042)) was 0.125 µg/mL (≈ 0.167 µM). It also gave an MIC (strain CDC94 (GCREF2013 043), read-out: MIC) of 2 µg/mL (≈ 2.67 µM), an MIC (strain CDC95 (GCREF2013 045)) of 0.125 µg/mL (≈ 0.167 µM) and an MIC (strain CDC96 (GCREF2013 046)) of 0.125 µg/mL (≈ 0.167 µM). The MIC (strain CDC97 (GCREF2013 047)) was 0.125 µg/mL (≈ 0.167 µM), the MIC (strain CDC98 (GCREF2013 048), read-out: MIC) was 2 µg/mL (≈ 2.67 µM) and the MIC (strain CDC99 (GCREF2013 012), read-out: MIC) was 4 µg/mL (≈ 5.34 µM). It also gave an MIC (strain CDC100 (GCREF2013 015)) of 0.125 µg/mL (≈ 0.167 µM) and an MIC90 (96 clinical isolates, read-out: MIC90) of 2 µg/mL (≈ 2.67 µM).
